Experimental data taken from patent publication US10183032B2, “Methods for treating bacterial infection” (Ball State Innovation Corporation, priority 2012, dated 2019).

Tests used:
CDC42 = CDC42 (Homo sapiens, UniProt P60953); assay: BODIPY-FL-GTP binding to CDC42
Staphylococcus aureus [1] = assay: Assessment of bactericidal activity (HUVEC media); assay type: cell-based; conditions: 1.2 × 10^8 CFU S. aureus, 1 h in HUVEC media; 10 μM
Experimental: FIG. 6B illustrates that neither cytotoxicity nor bactericidal activity is detected. Cultures of Staphylococcus aureus that had been incubated with the vehicle control DMSO or with ML 141 (1 hour, 37° C., 225 rpm) were serially diluted, plated onto blood agar, and incubated (18 hours, 37° C.). Colonies were enumerated and colony forming units (CFU)/ml determined. CFU/ml were not different amongst the groups (p>0.05 by t-test; n=2/treatment). […]

[2] = tested on: Human umbilical vein endothelial cells; assay: Cytotoxicity by propidium iodide exclusion, HUVEC; assay type: cell-based; conditions: HUVEC pretreated 18-20 h
actin stress fibers = assay: Actin stress fiber depolymerization in HUVEC during S. aureus infection; assay type: cell-based, human; conditions: 18-20 h pretreatment, S. aureus 1 h
Experimental: (§1) FIG. 8A is an image depicting ML 141 limiting actin stress fiber depolymerization during infection. Human umbilical vein endothelial cells (HUVEC) were incubated with ML 141 or with the vehicle control polyethylene glycol (PEG) 18-20 h prior to infection with Staphylococcus aureus (1 h). Actin was detected using Alexa Fluor 488 phalloidin. Arrows indicate intact actin stress fibers. Arrowhead indicates cell lacking actin stress fibers. 100 cells/treatment were evaluated from randomly selected fields. Data are presented as the % of cells in which actin stress fibers were not detected. Scale bar is 50 μm.
as §1, with “8B” for “8A”, “RSM 06” for “ML 141”, “200” for “Arrows indicate intact actin stress fibers. Arrowhead indicates cell lacking actin stress fibers. 100”
as §1, with “8C” for “8A”, “RSM 16” for “ML 141”, “200” for “Arrows indicate intact actin stress fibers. Arrowhead indicates cell lacking actin stress fibers. 100”
HUVEC are plated at 1×10^5 cells/ml into 35 mm glass-bottom dishes (MatTek, Ashland, Mass.) are coated with Attachment Factor, are pretreated, and are infected (1.2×10^8 CFU) as described above. […] Alexa 488 is excited by the 488 nanommeter Ar laser line and is detected using a 505-530 nanometer bandpass filter. […] Maximum pixel projections from the Z-stacks are generated and are analyzed for actin morphology.

Staphylococcus aureus [3] = assay: Staphylococcus aureus host cell invasion assay in HUVEC, flow cytometry; assay type: cell-based; conditions: HUVEC; for inhibition of invasion compared with ML 141 (Table 1): 10 μM, flow cytometry; for activity at 10 µM: Staphylococcus aureus, 1 h, read-out: Internalized bacteria (% control ± SEM), Structural analog
Experimental: In one embodiment, human umbilical vein endothelial cells (HUVEC, Life Technologies) are cultured in M200 medium supplemented with LSGS. RAW 264.7 cells (American Type Culture Collection, ATCC, Manassas, Va.) are cultured in RPMI supplemented with 10% FBS and L-glutamine. All cell types are maintained at 5% CO2, 37° C., in 75 cm^2 vented cap flasks (Thermo-Fisher). For assays, cultured cells are plated at 1×10^5 cells/ml in 35 mm culture dishes coated with Attachment Factor. The next day, cells are pretreated in culture medium containing the vehicle control or ML 141. For compound delivery, ML 141 first is suspended into DMSO or into PEG at a concentration of 5 mM. The 5 mM solution is diluted to 1 mM in the solvent and then diluted to the final concentration for each experiment in either serum-containing or serum-free medium. For vehicle control treatment, the same volume of PEG or DMSO as that of ML 141 is added to medium. The following day, the invasion assay is performed. For the shorter duration experiments, compound is added on the same day as the invasion assay, 1 hour prior to bacteria.
In another embodiment, HUVEC (Millipore, Billerica, Mass.) are cultured in EndoGRO LS Complete Media (Millipore) and are maintained at 5% CO2, 37° C., in 75 cm^2 vented cap flasks (Thermo-Fisher). For the invasion assay, cultured cells are plated at 1×10^4 cells/ml in 96-well culture dishes coated with Attachment Factor. The next day, cells are pretreated in culture medium containing the vehicle control, ML 141, or ML 141 structural analog. For compound delivery, ML 141 and structural analogs first are suspended into PEG at a concentration of 5 mM. The 5 mM solution is diluted to 1 mM in the solvent and then is diluted to the final concentration for each experiment in serum containing medium. For vehicle control treatment, the same volume of PEG as that of ML 141 or of ML 141 structural analog is added to the medium. The following day, the invasion assay is performed. Bacteria are added directly to medium containing vehicle control, ML 141, or the ML 141 structural analog.
Two days prior to the assay, TSB is inoculated with S. aureus (American Type Culture Collection #29213) and incubated overnight (225 rpm, 37° C.). Bacteria are subcultured the next day into fresh TSB. On the day of the assay, bacteria are pelleted (10000×g, 37° C., 3 min), are washed in saline, are pelleted as above, are resuspended in saline, then fluorescently labeled by incubation with rabbit anti-mouse IgG Alexa Fluor 488 (final concentration 8 μg/ml, RT, 20 min). Protein A, a S. aureus cell surface protein, avidly binds IgG thereby labeling the bacteria. Labeled bacteria are washed twice as above and are resuspended to 3×10^8 CFU/ml in saline. Host cells are incubated with the bacteria for 1 hour (1.2×10^8 CFU/ml for same-day recovery, 5×10^6 for recovery after 48 hours, 1.4×10^7 CFU/ml; 5% CO2, 37° C.). Following infection, extracellular bacteria are removed by extensive washes with PBS and incubation of the host cells with antimicrobials that have limited mammalian membrane permeability (lysostaphin, 20 μg/ml and gentamicin, 50 μg/ml; 45 min for same-day recovery studies, 48 hours for 2-day recovery studies; 5% CO2, 37° C.). To detect the level of infection using flow cytometry, cells that have been infected with fluorescently-labeled bacteria are washed extensively with PBS, lifted from 96-well plate by incubation with trypsin, washed extensively in FACS buffer (2% BSA/0.1% sodium azide/PBS), fixed (FACS buffer containing 0.74% formaldehyde), and are counted using an Accuri flow cytometer (BD, Franklin Lakes, N.J.). They are also lifted from culture dishes using cell scrapers, pelleted, fixed (1% BSA/0.74% formaldehyde/PBS), and are counted using an Accuri flow cytometer. For enumeration of the infecting bacteria, intracellular bacteria are released from host cells using 1% saponin/PBS (20 min, 5% CO2, 37° C.) and serial dilutions are plated on TSA (16 hours, 37° C.). […]

CDC42, sequence (P60953 whole entry): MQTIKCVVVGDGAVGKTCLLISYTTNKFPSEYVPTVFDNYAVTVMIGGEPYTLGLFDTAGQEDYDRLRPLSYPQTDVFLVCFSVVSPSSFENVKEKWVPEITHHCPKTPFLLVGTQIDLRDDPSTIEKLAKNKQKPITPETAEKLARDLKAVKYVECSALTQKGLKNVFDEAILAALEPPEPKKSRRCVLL

Compound | IC50 (CDC42) | CFU (×10^8 ± SEM), Compound (10 μM) (Staphylococcus aureus [1]) | Mean fluorescence intensity (×10^4 ± SEM), Compound (10 μM) [2] | depolymerization of actin stress fibers during infection (actin stress fibers) | inhibition of invasion compared with ML 141 (Table 1) (Staphylococcus aureus [3]) | activity at 10 µM (Staphylococcus aureus [3])
COc1ccc(C2=NN(c3ccc(S(N)(=O)=O)cc3)C(c3ccc4c(c3)OCO4)C2)cc1 (stereo not drawn) [RSM 06] | 10.1 µM | 4.9 ± 1.6 ×10^8 CFU | 2.8 ± 0.1 ×10^4 | limited actin depolymerization | inhibited invasion more than ML 141 | 23 ± 1%
COc1ccc(C2=NN(c3ccc(S(N)(=O)=O)cc3)C(c3ccc(OC)c(OC)c3)C2)cc1 (stereo not drawn) [RSM 16] | 3.7 µM | 8.9 ± 1.9 ×10^8 CFU | 1.4 ± 0.2 ×10^4 | limited actin depolymerization | inhibited invasion more than ML 141 | 63 ± 4%
